Laboratory results from paper PMC6562952, “Experimental and Computational Study to Reveal the Potential of Non-Polar Constituents from Hizikia fusiformis as Dual Protein Tyrosine Phosphatase 1B and α-Glucosidase Inhibitors” (Marine Drugs, 2019).
Read-outs that look alike come from different tables or passages of the source.

Columns and labels:
Yeast α-glucosidase = assay: In vitro α-glucosidase inhibitory activity assay; type: biochemical; details: for IC50: mean ± SD of triplicate experiments; for α-glucosidase inhibitory activity (in words): under the tested concentration
Description: Enzyme inhibition studies were carried out spectrophotometrically in a 96-well micro-plate reader using a procedure reported by Li et al..

PTP1B [1] = molecular target: T1, PTP1B (Homo sapiens, UniProt P18031); assay: Enzyme kinetic analysis towards PTP1B (Lineweaver-Burk plot and secondary plots); type: biochemical
T1 sequence (P18031 1-322): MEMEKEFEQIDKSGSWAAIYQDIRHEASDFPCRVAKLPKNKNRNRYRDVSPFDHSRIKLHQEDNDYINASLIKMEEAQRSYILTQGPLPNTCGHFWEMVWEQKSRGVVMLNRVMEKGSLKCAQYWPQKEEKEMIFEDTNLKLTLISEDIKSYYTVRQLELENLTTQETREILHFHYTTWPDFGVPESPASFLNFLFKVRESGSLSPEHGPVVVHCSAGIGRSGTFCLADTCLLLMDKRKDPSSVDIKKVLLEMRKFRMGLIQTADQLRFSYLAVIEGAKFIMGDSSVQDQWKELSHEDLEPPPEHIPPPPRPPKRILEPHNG
Description: The inhibition constant (Ki) and inhibition mode for the inhibition of PTP1B was calculated by the Lineweaver-Burk plot and its secondary plot of the slope and the y-intercept of compounds [49, 50]. […] Graphs were generated using SigmaPlot 12.0 (Systat Software Inc., San Jose, CA, USA).

[2] = molecular target: T2, truncated form of human recombinant PTP1B (amino acid 1-322) (Homo sapiens, UniProt P18031); assay: In vitro PTP1B inhibitory activity assay (pNPP substrate); details: for IC50: mean ± SD of triplicate experiments, pNPP substrate
T2 sequence (P18031 1-322): T1 sequence (P18031 1-322)
Description: A truncated form of human recombinant PTP1B (amino acid 1-322) was purchased from Enzo Life Sciences (Farmingdale, NY, USA) and dithiothreitol (DTT) was purchased from Bio-Rad Laboratories (Hercules, CA, USA). All other chemicals and solvents were purchased from E. Merck, Fluka, and Sigma-Aldrich, unless otherwise stated.
The inhibitory activity of isolated compounds against truncated form of human recombinant PTP1B was evaluated using pNPP as a substrate [48]. The amount of p-nitrophenyl produced after enzymatic dephosphorylation of pNPP was estimated by measuring the absorbance at 405 nm using a micro-plate spectrophotometer (Molecular Devices, Sunnyvale, CA, USA).

[3] = tested on: streptozotocin-induced Sprague-Dawley rats; details: fucosterol from Pelvetia siliquosa; cited from earlier work
[4] = tested on: insulin-resistant HepG2 cells; details: cited from earlier work
PTP1B [5] = details: in vitro; cited from earlier work

CC(C)C1(CC[C@@H](C)[C@H]2CCC3C4CC=C5C[C@@H](O)CC[C@]5(C)C4CC[C@@]32C)OC1C (mixture of isomers) [Compound 6, 24R,28R and 24S,28R-epoxy-24-ethylcholesterol]
IC50 (Yeast α-glucosidase): > 150 µM
Enzyme Kinetics Inhibition Type (PTP1B) (PTP1B [1]): Non-competitive
IC50 ([2]; IC50 PTP1B): 16.7 ± 0.36 µM
times stronger PTP1B inhibitory activity than 5 ([2]; ratio of IC50 versus fucosterol (5)): 3 times

CCC/C=C\CCCCCCCCCCC(=O)O [Compound 1, (Z)-hexadec-12-enoic acid]
IC50 (Yeast α-glucosidase): 48.1 ± 3.37 µM
IC50 ([2]; IC50 PTP1B): 6.59 ± 0.09 µM

CCCCCCCCCCCCCCCC(=O)O [Compound 2, palmitic acid]
IC50 (Yeast α-glucosidase): 93.6 ± 3.68 µM
IC50 ([2]; IC50 PTP1B): 49.4 ± 1.39 µM

CCCCCCCC/C=C\CCCCCCCC(=O)O [Compound 3, (Z)-octaec-9-enoic acid]
IC50 (Yeast α-glucosidase): 113 ± 2.47 µM
IC50 ([2]; IC50 PTP1B): 13.7 ± 0.49 µM

C=CC(O)(CCC(C)C1CCC2C3CC=C4CC(O)CCC4(C)C3CCC12C)C(C)C (stereo not drawn) [Compound 4, 24R and 24S-saringosterol]
IC50 (Yeast α-glucosidase): > 150 µM
IC50 ([2]; IC50 PTP1B): > 150 µM
PTP1B inhibitory activity (in words) ([2]; under the tested concentration): no activity

C/C=C(\CC[C@@H](C)[C@H]1CC[C@H]2[C@@H]3CC=C4C[C@@H](O)CC[C@]4(C)[C@H]3CC[C@]12C)C(C)C [Compound 5, fucosterol]
anti-diabetic activity [3]: anti-diabetic activity
effect on insulin resistance [4]: improved insulin resistance
PTP1B inhibition type (literature) (PTP1B [5]): non-competitive
IC50 (Yeast α-glucosidase): > 150 µM
Enzyme Kinetics Inhibition Type (PTP1B) (PTP1B [1]): non-competitive
IC50 ([2]; IC50 PTP1B): 50.6 ± 1.86 µM

CC/C=C\C/C=C\C/C=C\CCCCCCC(=O)O [Compound 7, (8Z,11Z,14Z)-heptadeca-8,11,14-trienoic acid]
IC50 (Yeast α-glucosidase): > 200 µM
IC50 ([2]; IC50 PTP1B): 4.86 ± 1.36 µM

CCCC/C=C\C/C=C\C/C=C\CCCCCC(=O)O [Compound 8, (7Z,10Z,13Z)-octadeca-7,10,13-trienoic acid]
IC50 (Yeast α-glucosidase): 112 ± 1.44 µM
IC50 ([2]; IC50 PTP1B): 13.58 ± 0.1 µM

CCCCCC\C=C/C=C\C=C/C=C\CCCCCC(=O)O [Compound 9, (7Z,9Z,11Z,13Z)-icosa-7,9,11,13-tetraenoic acid]
IC50 (Yeast α-glucosidase): 34.9 ± 2.39 µM
IC50 ([2]; IC50 PTP1B): 10.7 ± 0.17 µM

CC/C=C\C/C=C\C/C=C\C/C=C\CCCCC(=O)O [Compound 10, (6Z,9Z,12Z,15Z)-octadeca-6,9,12,15-tetraenoic acid]
IC50 (Yeast α-glucosidase): > 200 µM
IC50 ([2]; IC50 PTP1B): 16.43 ± 0.07 µM

CC/C=C\C/C=C\C/C=C\CCCCCCC(=O)O [Compound 12, (8Z,11Z,14Z)-heptadeca-8,11,14-trienoic acid]
IC50 (Yeast α-glucosidase): 43.9 ± 0.77 µM
IC50 ([2]; IC50 PTP1B): 11.5 ± 0.52 µM

C=C(COC(=O)CCCCCC(=O)OCC(O)COC(=O)CCC/C=C\C/C=C\C/C=C\CCCCCCCC)C(=O)O (stereo not drawn) [Compound 13, 2-(7′-(2″-hydroxy-3″-((5Z,8Z,11Z)-icosatrienoyloxy)propoxy)-7′-oxoheptanoyl)oxymethylpropenoic acid]
IC50 (Yeast α-glucosidase): > 150 µM
Enzyme Kinetics Inhibition Type (PTP1B) (PTP1B [1]): Non-competitive
IC50 ([2]; IC50 PTP1B): 4.92 ± 0.01 µM

COc1cc([C@H]2Oc3c(O)cc(CCCO)cc3[C@@H]2CO)ccc1O [Compound 14, cedrusin]
IC50 (Yeast α-glucosidase): 134 ± 3.86 µM
IC50 ([2]; IC50 PTP1B): 174 ± 5.44 µM

COc1cc(C(O)C(CO)Oc2ccc(CCCO)cc2O)ccc1O (stereo not drawn) [Compound 15, 1-(4-hydroxy-3-methoxyphenyl)-2-[2-hydroxy-4-(3-hydroxypropyl)phenoxy]-1,3-propanediol]
IC50 (Yeast α-glucosidase): > 250 µM
IC50 ([2]; IC50 PTP1B): > 400 µM

OCC1OC(OCc2ccccc2)C(O)C(O)C1O (stereo not drawn) [Compound 16, benzyl alcohol alloside]
IC50 (Yeast α-glucosidase): > 250 µM
IC50 ([2]; IC50 PTP1B): > 400 µM

CC1(C)CC2CC(C)(O2)/C1=C/C(=O)O (stereo not drawn) [Compound 17, madhusic acid A]
IC50 (Yeast α-glucosidase): > 300 µM
IC50 ([2]; read-out: IC50 PTP1B): > 400 µM

CC1(C)[C@@H](O[C@H]2O[C@H](C(=O)O)[C@@H](O)[C@H](O)[C@H]2O[C@@H]2O[C@H](C(=O)O)[C@@H](O)[C@H](O)[C@H]2O)CC[C@]2(C)[C@H]3C(=O)C=C4[C@@H]5C[C@@](C)(C(=O)O)CC[C@]5(C)CC[C@@]4(C)[C@]3(C)CC[C@@H]12 [Compound 18, 18β-glycyrrhetinic acid-3-O-β-D-glucuronopyranosyl-1(→2)-β-D-glucuronide]
IC50 (Yeast α-glucosidase): > 150 µM
α-glucosidase inhibitory activity (in words) (Yeast α-glucosidase): no activity
IC50 ([2]; IC50 PTP1B): 110.3 ± 0.39 µM

COC(=O)C1OC(OC2CCC3(C)C(CCC4(C)C3C(=O)C=C3C5CC(C)(C(=O)O)CCC5(C)CCC34C)C2(C)C)C(OC2OC(C(=O)O)C(O)C(O)C2O)C(O)C1O [Compound 19, 18β-glycyrrhetinic acid-3-O-β-D-glucuronopyranosyl-1(→2)-β-D-glucuronide-6’-methyl ester]
IC50 (Yeast α-glucosidase): > 150 µM
α-glucosidase inhibitory activity (in words) (Yeast α-glucosidase): no activity
times stronger PTP1B inhibition than compound 18 ([2]; ratio of IC50 versus glycyrrhizin (18)): 2.2 times

CC(=O)C=C=C1C(C)(C)CC(OC(C)=O)CC1(C)O [Compound 20, (3R)-4-[(2R,4S)-4-acetoxy-2-hydroxy-2,6,6-trimethylcyclohexylidene]but-3-en-2-one]
IC50 (Yeast α-glucosidase): > 250 µM
IC50 ([2]; IC50 PTP1B): 323.2 ± 0.84 µM

NCCc1ccc(O)cc1 [Compound 21, tyramine]
IC50 (Yeast α-glucosidase): 273 ± 5.65 µM
IC50 ([2]; IC50 PTP1B): 188 ± 3.21 µM

CC1(C)[C@@H](O)CC[C@]2(C)[C@H]3C(=O)C=C4[C@H]5C[C@@](C)(C(=O)O)CC[C@]5(C)CC[C@@]4(C)[C@]3(C)CC[C@@H]12 [Compound 22, 18α-glycyrrhetinic acid]
IC50 (Yeast α-glucosidase): 113.3 ± 0.7 µM
Enzyme Kinetics Inhibition Type (PTP1B) (PTP1B [1]): Competitive

CC1(C)C2CC[C@]3(C)[C@H](C(=O)C=C4[C@@H]5C[C@@](C)(C(=O)O)CC[C@]5(C)CC[C@]43C)[C@@]2(C)CC[C@@H]1O (stereo partly drawn) [Compound 23, 18β-glycyrrhetinic acid]
IC50 (Yeast α-glucosidase): 129 ± 3.88 µM
Enzyme Kinetics Inhibition Type (PTP1B) (PTP1B [1]): Competitive
